Results taken from patent US8268845B2, “Tetrahydro- and dihydroquinazolinones” (Merck Patent GmbH, priority 2005, dated 2012).

SMILES | melting point [°C]
O=c1[nH]c(N2CCNCC2)nc2c1CCCC2 | 121
CN1CCN(c2nc3c(c(=O)[nH]2)CCCC3)CC1 | 210
O=c1[nH]c(-c2ccc(Cl)cc2)nc2c1C=CCC2 [formula 6b, 2-(p-Chlorophenyl)-7,8-dihydroquinazolin-4(3H)-one] | > 250
O=c1[nH]c(-c2ccccc2F)nc2c1C=CCC2 [formula 6d, 2-(o-Fluorophenyl)-7,8-dihydroquinazolin-4(3H)-one] | 191
CSc1nc2c(c(=O)[nH]1)C=CCC2 [formula 6g, 2-Methylthio-7,8-dihydroquinazolin-4(3H)-one] | 214
O=c1[nH]c(-c2ccccc2)nc2c1CCCC2 [formula 7a, 2-Phenyl-5,6,7,8-tetrahydroquinazolin-4(3H)-one] | 224
O=c1[nH]c(-c2ccc(Cl)cc2)nc2c1CCCC2 [formula 7b, 2-(p-Chlorophenyl)-5,6,7,8-tetrahydroquinazolin-4(3H)-one] | 255
O=c1[nH]c(-c2ccccc2F)nc2c1CCCC2 [formula 7d, 2-(o-Fluorophenyl)-5,6,7,8-tetrahydroquinazolin-4(3H)-one] | 170
CC1CCc2nc(-c3ccccc3)[nH]c(=O)c2C1 (centres unmarked) [formula 10a, 6-Methyl-2-phenyl-5,6,7,8-tetrahydroquinazolin-4(3H)-one] | 237
CCC1CCc2nc(-c3ccccc3)[nH]c(=O)c2C1 (centres unmarked) [formula 10b, 6-Ethyl-2-phenyl-5,6,7,8-tetrahydroquinazolin-4(3H)-one] | 221

Further lines, results first:

melting point [°C] | SMILES
218 | CC1=Cc2c(nc(-c3ccccc3)[nH]c2=O)CC1 [formula 11a, 6-Methyl-2-phenyl-7,8-dihydroquinazolin-4(3H)-one]
198 | CCC1=Cc2c(nc(-c3ccccc3)[nH]c2=O)CC1 [formula 11b, 6-Ethyl-2-phenyl-7,8-dihydroquinazolin-4(3H)-one]
> 250 | O=c1[nH]c(N2CCN(Cc3ccccc3)CC2)nc2c1CC(S(=O)(=O)c1ccccc1)CC2 (centres unmarked) [formula 13b, 2-(4-benzylpiperazin-1-yl)-6-Benzenesulfonyl-5,6,7,8-tetrahydroquinazolin-4(3H)-one]
> 250 | CN1CCN(c2nc3c(c(=O)[nH]2)CC(S(=O)(=O)c2ccccc2)CC3)CC1 (centres unmarked) [formula 13c, 6-Benzenesulfonyl-2-(4-methylpiperazin-1-yl)-5,6,7,8-tetrahydroquinazolin-4(3H)-one]
